In patent publication US20250353891A1 (MEDIMMUNE LIMITED, priority 2022, published 2025):
Several values for one entry are separate records, joined by “and”; a condition that tells them apart may be missing. Equal entries are not always repeated. Starred links: 1 amine or outer side, 2 acyl side, 3 side chain; linkers in the order of their positions; H or OH if unused. Non-standard residues stand in square brackets, D forms with d. Residues, ends and D or L forms follow the SMILES beside them. Groups on a side chain read outwards from the residue. *: point of attachment. Dip = N[C@H](C(=O)O)C(c1ccccc1)c1ccccc1; γGlu = O=C(O)[C@H](CCC(=O)[*:2])N[*:1]; Stearoyl = CCCCCCCCCCCCCCCCCC(=O)*; αMeF = C[C@](N)(Cc1ccccc1)C(=O)O; Nle = CCCC[C@H](N)C(=O)O; PEG2 = NCCOCCOCCC(=O)O; Aib = CC(C)(N)C(=O)O

Key:
[1] = molecular target: human glucagon receptor (hGCGR) (Homo sapiens, UniProt P47871); assay: cAMP production (HTRF) in CHO cells expressing hGCGR; assay type: cell-based; parameters: expressed in transfected cells; conditions: Table 6, peptides modified at position 17; cAMP in CHO hGCGR cells; geometric mean; read-out: hGluc-R EC50
Sequence of human glucagon receptor (hGCGR) (P47871 26-477): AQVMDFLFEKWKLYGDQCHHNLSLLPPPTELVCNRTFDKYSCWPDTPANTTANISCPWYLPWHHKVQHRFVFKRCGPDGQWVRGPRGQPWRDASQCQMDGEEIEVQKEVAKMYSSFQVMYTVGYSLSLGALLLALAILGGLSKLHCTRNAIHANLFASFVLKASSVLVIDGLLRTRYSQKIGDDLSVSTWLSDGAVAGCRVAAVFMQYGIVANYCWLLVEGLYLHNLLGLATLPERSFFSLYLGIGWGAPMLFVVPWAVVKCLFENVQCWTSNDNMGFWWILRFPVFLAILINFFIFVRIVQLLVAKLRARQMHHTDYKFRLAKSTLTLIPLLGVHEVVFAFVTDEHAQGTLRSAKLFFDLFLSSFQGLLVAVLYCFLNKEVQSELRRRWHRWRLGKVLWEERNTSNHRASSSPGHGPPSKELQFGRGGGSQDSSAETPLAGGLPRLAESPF
Procedure, shortened: (§1)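 Potency values represent EC50 from 4-parameter logistic curves of HTRF % Delta F signal. Receptor-expressing CHO cells (hGCGR 2×10^5 cells/mL, hGLP-1R 1×10^5 cells/mL) were exposed for 30 min at room temperature before two-step cAMP detection.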

[2] = Proteolytic resistance to FasSSIF/Pancreatin; assay type: in vitro ADME; conditions: simulated intestinal fluid
Experimental: A fresh suspension of FasSSIF/P (Fasted-State Simulated Intestinal Fluid+USP Pancreatin®) was prepared according to that described by Galia, Nicolaides, Hörter, Löbenberg, Reppas and Dressman: Pharm. Res. 15 (1998) 698-705, and USP XL requirements. The resulting preparation was used immediately without storage.
Peptide for evaluation (1.0 mg) was dissolved in pre-warmed FasSSIF without Pancreatin® (200 μL). To this fresh FasSSIF/Pancreatin® (100 μL) was added to initiate potential proteolysis. Following momentary vortexing of the reaction tube the mixture was incubated at 37° C. in a thermostatic water bath for the duration of the experiment. 25 μL aliquot of the co-incubated peptide-enzyme mixture was periodically withdrawn (t=0, 5, 10 15 and 30 min) and quenched immediately by addition to a solution of 10% TFA in 1:1 water/acetonitrile (75 μL) to arrest proteolytic activity. Quenched samples were centrifuged (7800 RPM, 3 mins) to pellet solids and 10 μL aliquots of the supernatant solution were analyzed using analytical RP-HPLC as follows: Analytical RP-HPLC method: Agilent Polaris C8-A column (4.6×100 mm, 3 micron) eluted with a linear binary gradient of 10-90% MeCN (0.1% TFA v/v) in water (0.1% TFA v/v) over either 10 or 15 mins at 1.5 mL min^−1 at 40° C. with detection by UV absorption at 210 nm. Manual integration (AUC) allowed estimation of remaining intact peptide over the time course of the experiment.

[3] = Mouse acute food intake study; assay type: in vivo; conditions: male C57Bl/6 mice, s.c., cumulative food intake at 24 hr vs vehicle
Procedure, shortened: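 Single-housed male C57Bl/6 mice (8-9 weeks on arrival), chow-fed, acclimated and sham-dosed ≥2 times, were fasted 6-8 h, then given vehicle or peptide subcutaneously at 5 mL/kg 1-2 h before lights out. Food intake was recorded automatically over 48 h and analysed as cumulative intake.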

[4] = molecular target: human GLP-1 receptor (hGLP-1R) (Homo sapiens, UniProt P43220); assay: cAMP production (HTRF) in CHO cells expressing hGLP-1R; assay type: cell-based; parameters: expressed in transfected cells; conditions: for EC50: Table 6, peptides modified at position 17, cAMP in CHO hGLP-1R cells, geometric mean, read-out: hGLP-1R EC50; for % Relative Potency Ratio: Table 6, % GLP-1R activity relative to GLP-1 / % GlucR activity relative to glucagon
Sequence of human GLP-1 receptor (hGLP-1R) (P43220 24-463): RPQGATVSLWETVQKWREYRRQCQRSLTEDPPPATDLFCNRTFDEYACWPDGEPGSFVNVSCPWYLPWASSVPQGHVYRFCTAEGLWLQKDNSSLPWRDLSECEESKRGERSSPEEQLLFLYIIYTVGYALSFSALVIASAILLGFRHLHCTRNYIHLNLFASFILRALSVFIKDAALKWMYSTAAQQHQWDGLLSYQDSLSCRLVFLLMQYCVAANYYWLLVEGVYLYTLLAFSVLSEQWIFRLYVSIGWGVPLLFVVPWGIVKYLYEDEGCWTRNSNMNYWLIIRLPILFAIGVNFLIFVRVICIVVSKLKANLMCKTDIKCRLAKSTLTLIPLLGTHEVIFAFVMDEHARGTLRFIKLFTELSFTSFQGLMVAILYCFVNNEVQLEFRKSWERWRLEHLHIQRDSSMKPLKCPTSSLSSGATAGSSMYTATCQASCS
Procedure, shortened: as §1

[5] = system: GLP-1R knockout (KO) mice; assay: Glucose change in GLP-1R knockout mice; assay type: in vivo, mouse; conditions: GLP-1R KO mice, s.c.; for GLP-1R KO % glucose change 120 min: 120 min vs 0 min; for GLP-1R KO % glucose change - 60 min: 60 min vs 0 min
Experimental: (§2) They acclimated for a minimum of ˜1-2 weeks, and mice were sorted into groups (n=4-8/group) based on body weight. On day of study, mice were fasted briefly for 2 hrs prior to study start. In some studies, mice were pre-treated with octreotide (BaChem, 10 mg/kg) at 30 minutes prior to peptide injection. Glucose was measured via glucometer at various timepoints including-30 min (prior to octreotide when used in studies), 0 min (before peptide dose), 30, 60, 120, 180, 240, and 360 minutes. Since these studies are acute in nature, mice were re-used for multiple studies (no more than 3) and always allowed at least a minimum wash-out period of 1 week.

[6] = system: wildtype (WT) mice; assay: Glucose change in wildtype mice; assay type: in vivo, mouse; conditions: s.c.; for WT % glucose change 120 min: 120 min vs 0 min; for WT % glucose change 60 min: 60 min vs 0 min
Experimental: as §2, with “GLP-1R knockout (KO) and wildtype (WT) mice at 8-14 weeks of age were singly housed on standard chow diet (Envigo, 2918) and automatic water. They” for “They”

[7] = 3 nmol/kg, no somatostatin pretreatment
[8] = 10 nmol/kg, somatostatin pretreatment (octreotide) 30 min prior to cpd
[9] = 30 nmol/kg, somatostatin pretreatment (octreotide) 30 min prior to cpd
[10] = 10 nmol/kg, no somatostatin pretreatment
[11] = 30 nmol/kg, no somatostatin pretreatment

SMILES: CCCCCCCCCCCCCCCCCC(=O)N[C@@H](CCC(=O)N[C@@H](CCC(=O)NCCOCCOCCC(=O)NCCOCCOCCC(=O)NCCCC[C@H](NC(=O)[C@H](CO)NC(=O)[C@H](CC(=O)O)NC(=O)[C@H](CC(C)C)NC(=O)[C@@H](NC(=O)[C@H](CCCCN)NC(=O)[C@H](CO)NC(=O)[C@@H](NC(=O)[C@H](CC(=O)O)NC(=O)[C@H](CO)NC(=O)[C@@H](NC(=O)[C@](C)(Cc1ccccc1)NC(=O)[C@H](CO)NC(=O)CNC(=O)[C@H](CCC(N)=O)NC(=O)[C@H](CO)NC(=O)[C@@H](N)Cc1c[nH]cn1)[C@@H](C)O)C(C)C)C(c1ccccc1)c1ccccc1)C(=O)N[C@@H](C)C(=O)N[C@@H](C)C(=O)N[C@@H](CCC(N)=O)C(=O)N[C@@H](CC(=O)O)C(=O)N[C@@](C)(Cc1ccccc1)C(=O)N[C@H](C(=O)N[C@@H](CCC(=O)O)C(=O)NC(C)(C)C(=O)N[C@H](C(=O)N[C@H](C(=O)N[C@@H](CC(N)=O)C(=O)N[C@H](C(N)=O)[C@@H](C)O)[C@@H](C)CC)[C@@H](C)CC)C(C)C)C(=O)O)C(=O)O [Peptide 50] (H-HSQGS[αMeF]TSDVSK[Dip]LDSK([PEG2-PEG2-γGlu-γGlu-Stearoyl])AAQD[αMeF]VE[Aib]IINT-NH2)
- EC50 [1]: 8.74 pM
- remaining at 0.5 h, 3.3 mg/mL [2]: 98%
- 24 hr % Vehicle Food Intake ([3]; dose 10 nmol/kg): 78.5%
- EC50 [4]: 4.9 pM
- % Relative Potency Ratio [4]: 3.5

SMILES: CCCCCCCCCCCCCCCCCC(=O)N[C@@H](CCC(=O)N[C@@H](CCC(=O)NCCOCCOCCC(=O)NCCOCCOCCC(=O)NCCCC[C@H](NC(=O)[C@H](CO)NC(=O)[C@H](CC(=O)O)NC(=O)[C@H](CC(C)C)NC(=O)[C@](C)(Cc1ccccc1)NC(=O)[C@H](CCCCN)NC(=O)[C@H](CO)NC(=O)[C@@H](NC(=O)[C@H](CC(=O)O)NC(=O)[C@H](CO)NC(=O)[C@@H](NC(=O)[C@H](Cc1ccccc1)NC(=O)[C@@H](NC(=O)CNC(=O)[C@H](CCC(N)=O)NC(=O)C(C)(C)NC(=O)[C@@H](N)Cc1c[nH]cn1)[C@@H](C)O)[C@@H](C)O)C(C)C)C(=O)N[C@@H](CCCNC(=N)N)C(=O)N[C@@H](C)C(=O)N[C@@H](CCC(N)=O)C(=O)N[C@@H](CC(=O)O)C(=O)N[C@@](C)(Cc1ccccc1)C(=O)N[C@H](C(=O)N[C@@H](CCC(N)=O)C(=O)NC(C)(C)C(=O)N[C@@H](CC(C)C)C(=O)N[C@@H](CCCC)C(=O)N[C@@H](CCC(=O)O)C(=O)N[C@H](C(N)=O)[C@@H](C)O)C(C)C)C(=O)O)C(=O)O [Peptide 69] (H-H[Aib]QGTFTSDVSK[αMeF]LDSK([PEG2-PEG2-γGlu-γGlu-Stearoyl])RAQD[αMeF]VQ[Aib]L[Nle]ET-NH2; N-terminus assumed)
- GLP-1R KO % glucose change 120 min [5, 7]: 17.6%
- WT % glucose change 120 min [6, 7]: −27.2%
- 24 hr % Vehicle Food Intake ([3]; dose 10 nmol/kg): 74.3%
- % Relative Potency Ratio [4]: 11.1

SMILES: CCCCCCCCCCCCCCCCCC(=O)N[C@@H](CCC(=O)N[C@@H](CCC(=O)NCCOCCOCCC(=O)NCCOCCOCCC(=O)NCCCC[C@H](NC(=O)[C@H](CO)NC(=O)[C@H](CC(=O)O)NC(=O)[C@H](CC(C)C)NC(=O)C(C)(C)NC(=O)[C@H](CCCCN)NC(=O)[C@H](CO)NC(=O)[C@@H](NC(=O)[C@H](CC(=O)O)NC(=O)[C@H](CO)NC(=O)[C@@H](NC(=O)[C@](C)(Cc1ccccc1)NC(=O)[C@H](CO)NC(=O)CNC(=O)[C@H](CCC(N)=O)NC(=O)[C@H](CO)NC(=O)[C@@H](N)Cc1c[nH]cn1)[C@@H](C)O)C(C)C)C(=O)N[C@@H](C)C(=O)N[C@@H](C)C(=O)N[C@@H](CCC(N)=O)C(=O)N[C@@H](CC(=O)O)C(=O)N[C@@](C)(Cc1ccccc1)C(=O)N[C@H](C(=O)N[C@@H](CCC(N)=O)C(=O)NC(C)(C)C(=O)N[C@H](C(=O)N[C@@H](C)C(=O)N[C@@H](CC(N)=O)C(N)=O)[C@@H](C)CC)C(C)C)C(=O)O)C(=O)O [Peptide 97] (H-HSQGS[αMeF]TSDVSK[Aib]LDSK([PEG2-PEG2-γGlu-γGlu-Stearoyl])AAQD[αMeF]VQ[Aib]IAN-NH2; N-terminus assumed)
- EC50 [1]: 13 pM
- GLP-1R KO % glucose change 120 min [5, 8]: 91.1%
- GLP-1R KO % glucose change 120 min [5, 9]: 150.8%
- WT % glucose change 120 min [6, 8]: −41.9%
- WT % glucose change 120 min [6, 9]: −14.7%
- EC50 [4]: 1.05 pM
- % Relative Potency Ratio [4]: 24.3

SMILES: CC(C)C[C@H](NC(=O)[C@H](Cc1c[nH]c2ccccc12)NC(=O)[C@H](CCC(N)=O)NC(=O)[C@@H](NC(=O)[C@H](Cc1ccccc1)NC(=O)[C@H](CC(=O)O)NC(=O)[C@H](CCCNC(=N)N)NC(=O)[C@H](C)NC(=O)[C@H](CCCNC(=N)N)NC(=O)[C@H](CCCCNC(=O)COCCOCCNC(=O)COCCOCCNC(=O)CC[C@H](NC(=O)CCCCCCCCCCCCCCCCCCC(=O)O)C(=O)O)NC(=O)[C@@H](NC(=O)[C@H](CC(=O)O)NC(=O)[C@H](CC(C)C)NC(=O)[C@](C)(Cc1ccccc1)NC(=O)[C@H](CCCCN)NC(=O)[C@H](CO)NC(=O)[C@@H](NC(=O)[C@H](CC(=O)O)NC(=O)[C@H](CO)NC(=O)[C@@H](NC(=O)[C@H](Cc1ccccc1)NC(=O)[C@@H](NC(=O)CNC(=O)[C@H](CCC(N)=O)NC(=O)C(C)(C)NC(=O)[C@@H](N)Cc1c[nH]cn1)[C@@H](C)O)[C@@H](C)O)C(C)C)[C@@H](C)O)C(C)C)C(=O)N[C@@H](CC(C)C)C(=O)N[C@@H](CCC(=O)O)C(=O)NC(C)(C)C(=O)NCC(=O)O [Peptide 195, H-Aib-Q-G-T-F-T-S-D-V—S-K-αMePhe-L-D-T-K-R-A-R-D-F-V-Q-W-L-L-E-Aib-G-acid]
- GLP-1R KO % glucose change - 60 min [5, 10]: 35.3%
- GLP-1R KO % glucose change - 60 min [5, 11]: 48.0%
- WT % glucose change 60 min [6, 10]: 1.4%
- WT % glucose change 60 min [6, 11]: −17.0%
- 24 hr % Vehicle Food Intake ([3]; dose 1 nmol/kg): 102.1%
- 24 hr % Vehicle Food Intake ([3]; dose 3 nmol/kg): 84.0%
- 24 hr % Vehicle Food Intake ([3]; dose 10 nmol/kg): 58.2% and 49.9%
